EC50 data for 17 compounds are collected here from patent publication US9765067B2, “Thiophen-2-yl-pyridin-2-yl-1H-pyrazole-4-carboxylic acid derivatives and the use thereof as soluble guanylate cyclase activators” (Novartis AG, priority 2014, dated 2017).

The target in this assay is T1, soluble guanylate cyclase (human GUCYA3/GUCYB3) overexpressed in CHO cells (Homo sapiens, UniProt Q02108+Q02153).
T1 construct: expressed in transfected cells
T1 sequence (Q02108 1-690 partner): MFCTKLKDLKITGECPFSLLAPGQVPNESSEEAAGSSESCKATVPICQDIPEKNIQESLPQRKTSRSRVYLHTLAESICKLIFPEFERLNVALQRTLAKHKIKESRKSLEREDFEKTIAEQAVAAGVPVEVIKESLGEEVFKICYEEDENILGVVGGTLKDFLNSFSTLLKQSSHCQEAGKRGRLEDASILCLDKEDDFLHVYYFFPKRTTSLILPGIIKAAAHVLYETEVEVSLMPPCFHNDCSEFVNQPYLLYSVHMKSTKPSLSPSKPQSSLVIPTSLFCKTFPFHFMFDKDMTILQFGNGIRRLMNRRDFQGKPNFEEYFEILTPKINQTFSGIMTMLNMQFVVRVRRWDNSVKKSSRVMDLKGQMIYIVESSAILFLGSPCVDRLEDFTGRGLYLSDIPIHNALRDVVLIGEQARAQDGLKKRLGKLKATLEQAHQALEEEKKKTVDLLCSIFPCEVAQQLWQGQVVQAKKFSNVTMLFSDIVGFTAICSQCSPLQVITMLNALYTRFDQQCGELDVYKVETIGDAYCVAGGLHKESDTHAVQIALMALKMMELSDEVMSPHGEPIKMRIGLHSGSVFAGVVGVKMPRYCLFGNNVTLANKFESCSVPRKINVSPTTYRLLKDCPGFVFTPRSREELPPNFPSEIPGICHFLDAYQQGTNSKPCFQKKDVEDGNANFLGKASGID
T1 sequence (Q02153 1-619): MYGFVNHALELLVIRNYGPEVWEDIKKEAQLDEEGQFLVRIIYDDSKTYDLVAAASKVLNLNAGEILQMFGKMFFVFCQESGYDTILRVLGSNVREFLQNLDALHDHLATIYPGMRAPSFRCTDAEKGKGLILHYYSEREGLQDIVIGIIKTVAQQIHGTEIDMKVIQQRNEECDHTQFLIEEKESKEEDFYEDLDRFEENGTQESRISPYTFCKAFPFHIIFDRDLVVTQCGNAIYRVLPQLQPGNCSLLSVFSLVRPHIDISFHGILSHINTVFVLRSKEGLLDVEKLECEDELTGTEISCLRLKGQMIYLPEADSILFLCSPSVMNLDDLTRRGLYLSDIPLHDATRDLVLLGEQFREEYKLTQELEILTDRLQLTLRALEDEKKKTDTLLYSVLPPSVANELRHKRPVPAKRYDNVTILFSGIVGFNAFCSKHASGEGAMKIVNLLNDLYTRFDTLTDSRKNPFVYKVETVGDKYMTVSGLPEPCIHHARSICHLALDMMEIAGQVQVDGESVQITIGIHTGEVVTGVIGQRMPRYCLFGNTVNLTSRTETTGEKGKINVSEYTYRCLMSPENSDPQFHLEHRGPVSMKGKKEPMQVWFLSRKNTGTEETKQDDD
Briefly: CHO cellular assay (cGMP production, HTRF). To be noted: CHO K1 clone 8E10 overexpressing human sGC, Cisbio HTRF, 1 h room temperature, 1 mM IBMX, 20 uM ODQ, minimum quantification limit 0.5 nM. It counts as cell-based. An excerpt:
Chinese hamster ovary (CHO) cells overexpressing soluble guanylate cyclase were generated to test the effect of sGC activators in a cellular context. Human cDNAs for GUCYA3 (RefSeq: NM_000856.3) and GUCYB3 (RefSeq: NM_000857.1) were amplified by PCR from a HUVEC (Human Umbilical Vein Endothelial Cells) cDNA library and cloned into mammalian expression vectors. CHO K1 cells (ATCC CCL-61) were transfected using Lipofectamine 2000 following manufacturer's instructions and stably expressing clones were identified by antibiotic selection. CHO GUCY clone 8E10 was used for subsequent experiments.
Cells were seeded at a density of 3000 cells/well in white 384-well proxyplates (Perkin Elmer) and incubated overnight, then the medium was removed and cells were washed with assay buffer (HBSS, 0.1% BSA, 1 mM IBMX, 20 uM ODQ). sGC activators were serially diluted in DMSO, then diluted in assay buffer prior to adding to cells (10 ul/well, final DMSO concentration 0.5%). Cells were incubated with compounds for 1 h room temperature, then assayed for cGMP production using Cisbio cGMP HTRF kit (62GM2PEC) according to manufacturer's instructions.
The EC50s are calculated based on the amount of cGMP interpolated from the standard curve, using a 4-parameter sigmoidal dose-response.
(Time-resolved FRET reads energy transfer from a long-lived donor to a nearby acceptor.)

Broadly, the EC50 is the midpoint of the concentration-response curve. In turn, `Cc1cc(C2CCN(C(=O)C3CCOC3)CC2)ccc1OCc1ccsc1-c1cccc(-n2ncc(C(=O)O)c2C(F)(F)F)n1` (racemic) [Example 12-3, (±)-1-(6-(3-((2-Methyl-4-(1-(tetrahydrofuran-3-carbonyl)piperidin-4-yl)phenoxy)methyl)thiophen-2-yl)pyridin-2-yl)-5-(trifluoromethyl)-1H-pyrazole-4-carboxylic acid] returned an EC50 of 6.9 nM.
`Cc1cc(C2CCN(C(=O)C3COC(C)(C)O3)CC2)ccc1OCc1ccsc1-c1cccc(-n2ncc(C(=O)O)c2C(F)(F)F)n1` (racemic) [Example 12-6, (±)-1-(6-(3-((4-(1-(2,2-Dimethyl-1,3-dioxolane-4-carbonyl)piperidin-4-yl)-2-methylphenoxy)methyl)thiophen-2-yl)pyridin-2-yl)-5-(trifluoromethyl)-1H-pyrazole-4-carboxylic acid]: the concentration for a half-maximal effect (EC50) amounted to 48 nM.
In the case of `Cc1cc(COc2ccc(C3CCN(C(=O)C4CC4)CC3O)cc2)c(-c2cccc(-n3ncc(C(=O)O)c3C(F)(F)F)n2)s1` (racemic) [Example 35-11, (±)-trans-1-(6-(3-((4-(1-(Cyclopropanecarbonyl)-3-hydroxypiperidin-4-yl)phenoxy)methyl)-5-methylthiophen-2-yl)pyridin-2-yl)-5-(trifluoromethyl)-1H-pyrazole-4-carboxylic acid] it was 160 nM.
`Cc1cc(C2CCN(C(=O)C3CCNC3)CC2)ccc1OCc1ccsc1-c1cccc(-n2ncc(C(=O)O)c2C(F)(F)F)n1` (racemic) [Example 42, (±)-1-(6-(3-((2-Methyl-4-(1-(pyrrolidine-3-carbonyl)piperidin-4-yl)phenoxy)methyl)thiophen-2-yl)pyridin-2-yl)-5-(trifluoromethyl)-1H-pyrazole-4-carboxylic acid] yielded a concentration for a half-maximal effect (EC50) of 620 nM.
Regarding `CCc1cc(OCc2cc(C)sc2-c2cccc(-n3ncc(C(=O)O)c3C(F)(F)F)n2)ccc1C1CCN(C(=O)C(O)CO)CC1` (racemic) [Example 44, (±)-1-(6-(3-((4-(1-(2,3-Ddihydroxypropanoyl)piperidin-4-yl)-3-ethylphenoxy)methyl)-5-methylthiophen-2-yl)pyridin-2-yl)-5-(trifluoromethyl)-1H-pyrazole-4-carboxylic acid], it took 130 nM to reach a half-maximal effect (EC50).
On to `Cc1cc(COc2ccc([C@@H]3CCN(C(=O)C4CC4)C[C@H]3O)cc2)c(-c2cccc(-n3ncc(C(=O)O)c3C(F)(F)F)n2)s1` (single isomer, unassigned) [Example 35-6, (+)-trans-1-(6-(3-((4-((3,4)-1-(cyclopropanecarbonyl)-3-hydroxypiperidin-4-yl)phenoxy)methyl)-5-methylthiophen-2-yl)pyridin-2-yl)-5-(trifluoromethyl)-1H-pyrazole-4-carboxylic acid], for which the EC50 came out at 91 nM.
The result for `CCC(=O)N1CCC(c2ccc(OCc3ccsc3-c3cccc(-n4ncc(C(=O)O)c4C(F)(F)F)n3)cc2)CC1` [Example 1, 1-(6-(3-((4-(1-Propionylpiperidin-4-yl)phenoxy)methyl)thiophen-2-yl)pyridin-2-yl)-5-(trifluoromethyl)-1H-pyrazole-4-carboxylic acid] reads 24 nM; that for `CCC(=O)N1CCC(c2ccc(OCc3c(C(F)(F)F)csc3-c3cccc(-n4ncc(C(=O)O)c4C(F)(F)F)n3)cc2)CC1` [Example 2-1, 1-(6-(3-((4-(1-Propionylpiperidin-4-yl)phenoxy)methyl)-4-(trifluoromethyl)thiophen-2-yl)pyridin-2-yl)-5-(trifluoromethyl)-1H-pyrazole-4-carboxylic acid], 2.8 nM.
With `COC(=O)N1CCC(c2ccc(OCc3ccsc3-c3cccc(-n4ncc(C(=O)O)c4C(F)(F)F)n3)cc2)CC1` [Example 2-2, 1-(6-(3-((4-(1-(Methoxycarbonyl)piperidin-4-yl)phenoxy)methyl)thiophen-2-yl)pyridin-2-yl)-5-(trifluoromethyl)-1H-pyrazole-4-carboxylic acid], the response was half-maximal at 32 nM (EC50).
`O=C(O)c1cnn(-c2cccc(-c3sccc3COc3ccc(C4CCN(C(=O)C5CC5)CC4)cc3)n2)c1C(F)(F)F` [Example 2-3, 1-(6-(3-((4-(1-(Cyclopropanecarbonyl)piperidin-4-yl)phenoxy)methyl)thiophen-2-yl)pyridin-2-yl)-5-(trifluoromethyl)-1H-pyrazole-4-carboxylic acid] gave an EC50 of 2.8 nM. This EC50 lies about 11-fold lower than the previous one.
Regarding `CCC(=O)N1CCC(c2ccc(OCc3c(C(F)(F)F)csc3-c3cccc(-n4ncc(C(=O)O)c4C(F)(F)F)n3)c(C)c2)CC1` [Example 2-4, 1-(6-(3-((2-Methyl-4-(1-propionylpiperidin-4-yl)phenoxy)methyl)-4-(trifluoromethyl)thiophen-2-yl)pyridin-2-yl)-5-(trifluoromethyl)-1H-pyrazole-4-carboxylic acid], the EC50 is no more than 0.5 nM.
In the case of `CCC(=O)N1CCC(c2ccc(OCc3ccsc3-c3cccc(-n4ncc(C(=O)O)c4C(F)(F)F)n3)c(C)c2)CC1` [Example 2-5, 1-(6-(3-((2-Methyl-4-(1-propionylpiperidin-4-yl)phenoxy)methyl)thiophen-2-yl)pyridin-2-yl)-5-(trifluoromethyl)-1H-pyrazole-4-carboxylic acid], the EC50 was 5.5 nM.
In the case of `COC(=O)N1CCC(c2ccc(OCc3cc(C)sc3-c3cccc(-n4ncc(C(=O)O)c4C(F)(F)F)n3)c(C)c2)CC1` [Example 3, 1-(6-(3-((4-(1-(Methoxycarbonyl)piperidin-4-yl)-2-methylphenoxy)methyl)-5-methylthiophen-2-yl)pyridin-2-yl)-5-(trifluoromethyl)-1H-pyrazole-4-carboxylic acid], the EC50 stood at 1.4 nM.
Take `CCC(=O)N1CCC(c2cc(C)c(OCc3ccsc3-c3cccc(-n4ncc(C(=O)O)c4C(F)(F)F)n3)c(C)c2)CC1` [Example 4-1]: the EC50 came to 2 nM.
In turn, `CCC(=O)N1CCC(c2ccc(OCc3cc(C)sc3-c3cccc(-n4ncc(C(=O)O)c4C(F)(F)F)n3)cc2)CC1` [Example 4-2, 1-(6-(5-Methyl-3-((4-(1-propionylpiperidin-4-yl)phenoxy)methyl)thiophen-2-yl)pyridin-2-yl)-5-(trifluoromethyl)-1H-pyrazole-4-carboxylic acid] yielded an EC50 of 3 nM. Compared with the last compound, the EC50 is about 1.5-fold higher.
On to `CCc1cc(COc2ccc(C3CCN(C(=O)OC)CC3)cc2C)c(-c2cccc(-n3ncc(C(=O)O)c3C(F)(F)F)n2)s1` [Example 4-3, 1-(6-(5-Ethyl-3-((4-(1-(methoxycarbonyl)piperidin-4-yl)-2-methylphenoxy)methyl)thiophen-2-yl)pyridin-2-yl)-5-(trifluoromethyl)-1H-pyrazole-4-carboxylic acid], for which the EC50 came to 5.5 nM. Against the preceding compound, the EC50 is about 1.8-fold higher.
In the case of `Cc1cc(C2CCN(C(=O)C3CC3)CC2)ccc1OCc1c(C)csc1-c1cccc(-n2ncc(C(=O)O)c2C(F)(F)F)n1` [Example 4-4, 1-(6-(3-((4-(1-(Cyclopropanecarbonyl)piperidin-4-yl)-2-methylphenoxy)methyl)-4-methylthiophen-2-yl)pyridin-2-yl)-5-(trifluoromethyl)-1H-pyrazole-4-carboxylic acid] it was no more than 0.5 nM.
